One data set deals with C6 glioblastoma line. As to the kind of experiment: MTT antiproliferative test, C6. Type of data set: cell-based. The conditions noted are these: Rattus norvegicus, read-out: IC50, inhibition of proliferation. Here is the method: (§1) Several cancer cell lines were used for the in vivo or in vitro biological tests: • SNB75 is a human glioblastoma line derived from a primary culture, i.e. derived from a primary malignant cancer tumor. It forms part of the panel of 59 cancer lines referenced by the NCI. Its Cosmic reference number published by the Welcome Trust Sanger Institute is 905982. This line was supplied by a person (M.D. Ph.D of the department of “Radiation Oncology”, Stanford University Medical Center). It was cultured in Ham's F-12 and DMEM (1/1) supplemented with 10% fetal bovine serum. The experiments were performed with cells in the exponential growth phase. • Gli4 (or Gli4F11) and Gli7 are cultures of cancer strain cells derived from human glioblastomas (primary cultures). These lines are CD133^+, CD15^+ which are multipotent and tumorigenic in animals. They were established by J. P. Hugnot (INM INSERM U-1051 Eq. 4), and described in Guichet, P. O. et al, Glia 2013, 61(2), 225-239; • C6 is a rat glioblastoma line. It is referenced in the ATCC under the reference CCL-107. • MDAMB-435 is a melanoma line derived from a mammary melanoma. It forms part of the panel of 59 cancer lines referenced by the NCI. It is referenced at the ATCC under the reference HTB-129. It was cultured in Ham's F-12 and DMEM (1/1) supplemented with 10% fetal bovine serum. […]
On the technique in general: Formazan colour is commonly taken as a measure of viable cells.

A further data set has as its system Gli7. As to the kind of experiment: MTT antiproliferative test, Gli7. The note with it: Homo sapiens, read-out: IC50, inhibition of proliferation. Type of data set: cell-based. The procedure: as §1
Another data set deals with melanoma line MDAMB-435. As to the kind of experiment: Boyden chamber migration test, MDAMB-435. The note with it: for Ki: 24 hours, read-out: Inhibition constant Ki, migration. Type of data set: cell-based, human. The procedure:
The effects of compounds 3.48a, 4.2a and 5.6d on the migration of cancer cells (human glioblastoma line SNB75 or primary culture of human glioblastoma Gli4F1, on the one hand, and MDAMB 435 and A431 on the other hand), were determined by performing a standard migration test in a Boyden chamber (treatment of the cells for 24 hours).
For this test, the compounds were dissolved in vitro and used in culture in 0.3% of DMSO. The interior of the inserts was covered with the extracellular matrix protein studied (laminin-1, vitronectin or fibronectin). The cells pretreated at various concentrations and untreated (controls) were deposited in the inserts covered with said protein at a rate of 50 000 cells/500 μl/insert in a medium containing 0.1% of BSA (bovine serum albumin).
500 μl of medium containing 10% fetal calf serum were then placed in each well of a Companion plate so as to allow the formation of a chemotactic gradient across the porous membrane. After 24 hours of migration in the incubator at 37° C., the supernatent was removed and the inserts rinsed with PBS on each face. The cells were counted with a microscope (Zeiss Axiophot, magnification ×200). This gives a percentage of migration relative to the untreated cells.
Table 2 below gives, for compound 3.48a, the values for the inhibition constants (Ki) for the migration of a human GBM line (SNB75), of GBM stem cell lines (Gli4, Gli7) and of a breast cancer line MDAMB231, in a Boyden chamber, on various extracellular matrix protein supports. Tables 3 and 4 below give, for compounds 4.2a and 5.6d, the values of the inhibition constants (Ki) for the migration of a melanoma line (MDAMB-435) or of an epidermoid cancer line (A431), in a Boyden chamber, on various extracellular matrix protein supports. The inhibitory effect depends on the line and the stem cells used, but also on the extracellular matrix protein support used.

Data set [1] is described as follows: Solubility / formulation behaviour. Format: physicochemical. The procedure: The following two formulations are particularly suited to compounds 3.48a and 4.2a and allow their in vivo administration, at concentrations of about 20-100 mg/kg, intravenously: […]

Read-outs that look alike come from different tables or passages of the source.

With `CC1(C)O[C@H]2[C@@H]([C@H]3COC(C)(C)O3)O[P@](=O)(c3ccccc3)[C@@H](OC(=O)c3ccccc3)[C@H]2O1` [Compound 4.2a, (SPRSRR)-3-benzoate-4-(2,2-dimethyl-[1,3]dioxolan-4-yl)-2,2-dimethyl-2-oxo-2-phenyl-tetrahydro-2λ^5-[1,2]oxaphosphinane], the IC50 in the data set on C6 glioblastoma line was 8.51 µM; with Gli7, 2710 nM; in the data set with melanoma line MDAMB-435 (Homo sapiens, MDA-MB-435, on fibronectin or vitronectin, read-out: Concentration for a 50% decrease in migration of the cancer cells), 10 to 100 nM. Besides, the Ki at melanoma line MDAMB-435 (support Fibronectin) came out at 33 nM; on melanoma line MDAMB-435 (support Laminin), 34 nM; at melanoma line MDAMB-435 (support Vitronectin) it was 61 nM. Besides, the Complexation in cyclodextrins result in data set [1] is listed as “non-complexible in cyclodextrins”. The Solubility result in data set [1] (water, water-soluble solvents) was “insoluble in water, in numerous water-soluble solvents”.
